Literature values, collected in PMC9963398, “Discovery of New Quinolone-Based Diarylamides as Potent B-RAF^V600E/C-RAF Kinase Inhibitors Endowed with Promising In Vitro Anticancer Activity” (International Journal of Molecular Sciences, 2023).

What was measured:
Set-up in all cases: method as in PMID 32745753
SF-268 = details: SF-268, CNS cancer; cited from earlier work
MOLT-4 = details: MOLT-4, Leukemia; cited from earlier work
NCI-H226 = details: NCI-H226, NSCL cancer; cited from earlier work
HCT-116 = details: HCT-116, Colon cancer; cited from earlier work
HL-60(TB) = details: Leukemia; cited from earlier work
HCT-15 = details: HCT-15, Colon cancer; cited from earlier work
UO-31 = details: UO-31, Renal cancer; cited from earlier work
NCI/ADR-RES = details: Ovarian cancer; cited from earlier work
UACC-257 = details: UACC-257, Melanoma; cited from earlier work
LOX IMVI = details: Melanoma; cited from earlier work
OVCAR-8 = details: OVCAR-8, Ovarian cancer; cited from earlier work
NCI-H522 = details: NCI-H522, NSCL cancer; cited from earlier work

CNC(=O)c1cc(Oc2ccc(NC(=O)Nc3ccc(Cl)c(C(F)(F)F)c3)cc2)ccn1 [Sorafenib]
GI50 (SF-268): 2.5 µM | GI50 (MOLT-4): 2.9 µM | GI50 (NCI-H226): 1.9 µM | GI50 (HCT-116): 1.7 µM | GI50 (HL-60(TB)): 1.6 µM | GI50 (HCT-15): 2.5 µM | GI50 (UO-31): 2.6 µM | GI50 (NCI/ADR-RES): 2.5 µM | GI50 (UACC-257): 2.2 µM | GI50 (LOX IMVI): 1.6 µM | GI50 (OVCAR-8): 3 µM | GI50 (NCI-H522): 2.1 µM
